This test concerns the target T1, Axl (Homo sapiens, UniProt P30530).
T1 construct: endogenous in cells; host or cells: HeLa cells
T1 sequence (P30530 26-894): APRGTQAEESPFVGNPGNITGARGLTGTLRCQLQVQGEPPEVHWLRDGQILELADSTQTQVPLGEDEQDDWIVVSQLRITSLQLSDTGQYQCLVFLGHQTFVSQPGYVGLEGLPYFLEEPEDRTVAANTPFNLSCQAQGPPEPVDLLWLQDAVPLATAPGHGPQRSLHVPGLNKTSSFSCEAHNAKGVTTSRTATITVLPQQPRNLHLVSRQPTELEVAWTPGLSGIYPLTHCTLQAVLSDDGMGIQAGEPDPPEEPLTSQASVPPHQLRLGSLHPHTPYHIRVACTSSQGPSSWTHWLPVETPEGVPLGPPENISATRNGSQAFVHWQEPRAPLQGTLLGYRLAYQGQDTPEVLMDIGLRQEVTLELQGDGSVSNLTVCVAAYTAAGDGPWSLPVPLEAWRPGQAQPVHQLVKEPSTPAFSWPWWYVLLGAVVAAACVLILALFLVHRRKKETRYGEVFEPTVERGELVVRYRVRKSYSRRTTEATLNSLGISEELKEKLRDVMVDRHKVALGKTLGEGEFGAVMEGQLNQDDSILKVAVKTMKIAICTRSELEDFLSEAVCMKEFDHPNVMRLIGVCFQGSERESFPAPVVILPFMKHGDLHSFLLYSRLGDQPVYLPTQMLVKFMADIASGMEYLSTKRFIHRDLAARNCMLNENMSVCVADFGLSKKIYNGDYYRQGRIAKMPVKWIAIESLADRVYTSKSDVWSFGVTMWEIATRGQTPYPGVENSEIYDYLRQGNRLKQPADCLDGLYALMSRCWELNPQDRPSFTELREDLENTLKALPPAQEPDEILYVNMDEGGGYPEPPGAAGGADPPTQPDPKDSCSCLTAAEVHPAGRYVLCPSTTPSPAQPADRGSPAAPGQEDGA
In words: Phospho-Akt in-cell Western assay (inhibition of Axl activity). Type of test: cell-based. The method in brief: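 HeLa cells on poly-L-lysine, starved 24 h in 0.5% FCS DMEM with Axl/Fc 500 ng/mL, pre-treated with compound 1 h at 37° C. Axl stimulated 5 min by anti-Axl/anti-mouse antibody cross-linking. Fixed cells probed with anti-phospho-Akt and HRP secondary, chemiluminescence read.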

Where [1] appears, read: inhibition of Axl activity, Table 1.
[2] abbreviates: Table 3, Hela cells, Axl antibody cross-linking stimulation, phospho-Akt chemiluminescence.
Where [3] appears, read: Table 2, Hela cells, Axl antibody cross-linking stimulation, phospho-Akt chemiluminescence.
Setting [4] is: inhibition of Axl activity, phospho-Akt in-cell Western assay, Table 1.

SMILES strings stand for the structures. Bounds are passed on as bounds.

In the case of `Cc1ccccc1C(=O)n1nc(Nc2ccc3c(c2)OCCO3)nc1N` [compound 97, 5-amino-3-(1,4-benzodioxan-6-yl)amino-1-(2-(methyl)phenyl)carbonyl-1H-1,2,4-triazole], under setting [1], the IC50 (in general, the concentration that gives 50% inhibition) is 10 to 20 µM.

For `COc1cccc(Nc2nc(N)n(C(=O)c3ccc(C)cc3)n2)c1` [compound 134, 5-amino-3-[3-(methoxy)phenylamino]-1-(4-(methyl)phenyl)carbonyl-1H-1,2,4-triazole], the IC50 under setting [1] was in the range of 1 to 10 µM.

`Nc1nc(Nc2ccc(OCCN3CCCC3)cc2)nn1C(=O)c1ccc2nn[nH]c2c1` [compound 281, 5-amino-1-(1H-benzo[d][1,2,3]triazol-5-yl)carbonyl-3-[4-[2-(pyrrolidin-1-yl)ethoxy]phenylamino]-1H-1,2,4-triazole]: under setting [2], the IC50 lay within 10 to 20 µM.

`CC(C)Oc1ccc(C(=O)n2nc(N)nc2Nc2ccc(OCCN3CCCC3)cc2)cc1` [compound 191, 3-amino-1-(4-iso-propoxyphenyl)carbonyl-5-[4-[2-(pyrrolidin-1-yl)ethoxy]phenylamino]-1H-1,2,4-triazole] returned an IC50 under setting [3] of 1 to 10 µM.

As to `Nc1nc(Nc2ccc(OCCN3CCCC3)cc2)nn1C(=O)c1ccc(N2CCCCC2)cc1` [compound 401, 5-amino-1-(4-(piperidin-1-yl)phenyl)carbonyl-3-[4-[2-(pyrrolidin-1-yl)ethoxy]phenylamino]-1H-1,2,4-triazole], under setting [4], the IC50 is < 1 µM.

On to `COc1cc(OC)cc(C(=O)n2nc(Nc3ccc(OCCN4CCCCC4)cc3)nc2N)c1` [compound #19, 5-Amino-1-(3,5-(dimethoxy)phenyl)carbonyl-3-[4-[2-(piperidin-1-yl)ethoxy]phenylamino]-1H-1,2,4-triazole], for which, under setting [4], the IC50 was < 1 µM.

As for `Nc1nc(Nc2ccc3c(c2)OCCO3)nn1C(=O)c1ccccc1F` [compound 99, 5-amino-3-(1,4-benzodioxan-6-yl)amino-1-(2-(fluoro)phenyl)carbonyl-1H-1,2,4-triazole], the IC50 under setting [1] lay in the range of 10 to 20 µM.

`Nc1nc(Nc2ccc3c(c2)OCCO3)nn1C(=O)c1ccc(O)cc1` [compound 162, 5-amino-3-(1,4-benzodioxan-6-yl)amino-1-(4-(hydroxy)phenyl)carbonyl-1H-1,2,4-triazole] had an IC50 under setting [1] of 1 to 10 µM.

Consider `Nc1nc(Nc2ccc3c(c2)OCCO3)nn1C(=O)c1ccc(OCCN2CCOCC2)cc1` [compound 149, 5-amino-3-(1,4-benzodioxan-6-yl)amino-1-[4-[2-(morpholin-4-yl)ethoxy]phenyl]carbonyl-1H-1,2,4-triazole], for which the IC50 under setting [1] fell in the range of 1 to 10 µM.

`CC(C)Oc1ccc(C(=O)n2nc(Nc3ccc(OCCCN4CCCC4)cc3)nc2N)cc1` [compound #10, 5-Amino-1-(4-(iso-propoxy)phenyl)carbonyl-3-[4-[3-(pyrrolidin-1-yl)propoxy]phenylamino]-1H-1,2,4-triazole]: under setting [4], the IC50 is < 1 µM.

For `COC(=O)COc1cccc(C(=O)n2nc(Nc3ccc4c(c3)OCCO4)nc2N)c1` [compound 138, 5-amino-3-(1,4-benzodioxan-6-yl)amino-1-[3-(methoxycarbonylmethoxy)phenyl)carbonyl-1H-1,2,4-triazole], under setting [1], the IC50 fell in the range of 1 to 10 µM.

Consider `CC(C)(C)Oc1ccc(C(=O)n2nc(Nc3ccc(OCCN4CC[C@H](F)C4)cc3)nc2N)cc1` [compound 384, 5-amino-1-(4-(tert-butoxy)phenyl)carbonyl-3-[4-[2-((S)-3-fluoropyrrolidin-1-yl)ethoxy]phenylamino]-1H-1,2,4-triazole], for which the IC50 under setting [4] was < 1 µM.

For `Cc1cccc(C(=O)n2nc(Nc3ccc(OCCN4CCCC4)cc3)nc2N)c1` [compound #9, 5-Amino-1-(3-methylphenyl)carbonyl-3-[4-[2-(pyrrolidin-1-yl)ethoxy]phenylamino]-1H-1,2,4-triazole], under setting [4], the IC50 is < 1 µM.

In the case of `COc1ccc(C(=O)n2nc(Nc3ccc4c(c3)OCCO4)nc2N)cc1C` [compound 257, 5-amino-3-(1,4-benzodioxan-6-yl)amino-1-(3-methyl-4-methoxy)phenylcarbonyl-1H-1,2,4-triazole], the IC50 under setting [1] was in the range of 1 to 10 µM.

Take `CN1CCN(c2ccc(Nc3nc(N)nn3C(=O)c3ccc(N(C)C)cc3)cc2)CC1` [compound 362, 3-amino-1-(4-(dimethylamino)phenyl)carbonyl-5-(4-(4-methylpiperazin-1-yl)phenylamino]-1H-1,2,4-triazole]: the IC50 under setting [3] fell in the range of 1 to 10 µM.

Regarding `CC(C)(C)OC(=O)NCc1ccc(C(=O)n2nc(Nc3ccc(OCCN4CCCC4)cc3)nc2N)cc1` [compound 278, 5-amino-1-[4-((tert-butoxycarbonyl)aminomethyl)phenyl]carbonyl-3-[4-[2-(pyrrolidin-1-yl)ethoxy]phenylamino]-1H-1,2,4-triazole], under setting [4], the IC50 was < 1 µM.

Turning to `CC(C)(C)OC(=O)NC1CCOc2ccc(Nc3nc(N)n(C(=O)c4ccc(OC(C)(C)C)cc4)n3)cc21` (centres unmarked) [compound 275], the IC50 (Table 5, Hela cells, Axl antibody cross-linking stimulation, phospho-Akt chemiluminescence) was > 20 µM.

Turning to `COc1cc(Nc2nc(N)n(C(=O)c3ccc(OC(C)C)cc3)n2)ccc1OCCN1CCCC1` [compound 316, 5-amino-1-(4-(iso-propoxy)phenyl)carbonyl-3-[3-methoxy-4-[2-(pyrrolidin-1-yl)ethoxy]phenylamino]-1H-1,2,4-triazole], the IC50 under setting [4] is < 1 µM.

As for `CN(c1ccc(OCCN2CCCC2)cc1)c1nc(N)n(C(=O)c2ccc(OC(C)(C)C)cc2)n1` [compound 272, 5-amino-1-(4-(tert-butoxy)phenyl)carbonyl-3-[4-[2-(pyrrolidin-1-yl)ethoxy]phenyl][methyl]amino-1H-1,2,4-triazole], under setting [4], the IC50 is > 20 µM.

In the case of `Nc1nc(Nc2ccc(OCCN3CCCCCC3)cc2)nn1C(=O)c1ccc(-c2csnn2)cc1` [compound 324, 5-amino-1-(4-(1,2,3-thiadiazol-4-yl)phenyl)carbonyl-3-[4-[2-(azepan-1-yl)ethoxy]phenylamino]-1H-1,2,4-triazole], under setting [4], the IC50 is < 1 µM.

Consider `Cc1ccc(C(=O)n2nc(Nc3ccccc3O)nc2N)cc1` [compound 211, 5-amino-3-[2-(hydroxyl)phenylamino]-1-(4-methylphenyl)carbonyl-1H-1,2,4-triazole], for which the IC50 under setting [1] is > 20 µM.

`Cc1cccc(C(=O)n2nc(Nc3cccc(OCS(C)(=O)=O)c3)nc2N)c1` [compound 235, 5-amino-1-(3-methylphenyl)carbonyl-3-[3-(methylsulfonylmethoxy)phenyl]amino-1H-1,2,4-triazole] gave an IC50 under setting [1] of 1 to 10 µM.

On to `COc1ccc(Nc2nc(N)n(C(=O)Nc3ccc(Cl)cc3)n2)cc1` [compound 172, 5-amino-N-(4-chlorophenyl)-3-[4-(methoxy)phenylamino]-1H-1,2,4-triazole-1-carboxamide], for which, under “Table 7, Hela cells, Axl antibody cross-linking stimulation, phospho-Akt chemiluminescence”, the IC50 is > 20 µM.

`Cc1ccc(C(=O)n2nc(Nc3ccc4c(c3)OCCO4)nc2N)cc1C` [compound 234, 5-amino-1-(3,4-dimethylphenyl)carbonyl-3-(1,4-benzodioxan-6-yl)amino-1H-1,2,4-triazole] came in with an IC50 under setting [1] of 1 to 10 µM.

`CC(C)c1ccc(C(=O)n2nc(Nc3ccc4c(c3)OCCO4)nc2N)cc1` [compound 232, 5-amino-3-(1,4-benzodioxan-6-yl)amino-1-(4-iso-propylphenyl)carbonyl-1H-1,2,4-triazole]: under setting [1], the IC50 lay in the range of 1 to 10 µM.

Take `COCOc1cccc(Nc2nc(N)n(C(=O)c3cccc(C)c3)n2)c1` [compound 216, 5-amino-3-(3-methoxymethoxy)phenylamino-1-(3-methylphenyl)carbonyl-1H-1,2,4-triazole]: the half-maximal inhibitory concentration (IC50) under setting [1] was > 20 µM.

Under setting [2], `CC1(C)Oc2ccc(C(=O)n3nc(Nc4ccc(N5CCOCC5)cc4)nc3N)cc2NC1=O` [compound 68, 5-amino-1-(2,2-dimethyl-2H-benzo[b][1,4]oxazin-3(4H)-on-6-yl)carbonyl-3-(4-(morpholin-4-yl)phenylamino)-1H-1,2,4-triazole] yielded an IC50 of 1 to 10 µM.

As for `Nc1nc(Nc2ccc(OCCN3CCCCC3)cc2)nn1C(=O)c1ccc2c(c1)OCO2` [compound #13, 5-Amino-1-(1,3-benzodioxol-5-yl)carbonyl-3-[4-[2-(piperidin-1-yl)ethoxy]phenylamino]-1H-1,2,4-triazole], under setting [4], the IC50 was < 1 µM.

In the case of `CN(C)c1ccc(C(=O)n2nc(N)nc2NC2C3C=CC(C3)C2C(N)=O)cc1` (centres unmarked) [compound 349, 3-amino-1-(4-(dimethylamino)phenyl)carbonyl-5-[(3-(aminocarbonyl)bicyclo[2.2.1]hept-5-en-2-yl)amino]-1H-1,2,4-triazole], the IC50 (Table 6, Hela cells, Axl antibody cross-linking stimulation, phospho-Akt chemiluminescence) is > 20 µM.

Source of the values: US8389557B2, “Triazole derivatives useful as Axl inhibitors” (Rigel Pharmaceuticals, Inc., priority 2005, dated 2013).
